In PubChem BioAssay AID1259411 (Chemical Carcinogenesis Research Information System (CCRIS), 2018):
The source made the active and inactive calls. The rule behind the calls is not given here.

Tested on: rodent carcinogenicity bioassays, tumor incidence
Assay: CCRIS carcinogenicity studies
How it was run: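 Archive of carcinogenicity, mutagenicity, tumor promotion and tumor inhibition results drawn from journals, NCI reports and other sources, expert-reviewed; covers 1985-2011 and is no longer updated.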

CCCCN(C)N=O
carcinogen call (Species: HAMSTER, Strain/Sex: SYRIAN/FEMALE, Route: GAVAGE, Dose: 0, 2.5, 5 MG/KG 1/WK FOR 23-30 WK (TOTAL DOSE: 0; 0.65; 1.0 MMOL) (STUDY DURATION: LIFETIME), Dose: 0, 2.5, 5 MG/KG 1/WK FOR 23-30 WK (TOTAL DOSE: 0; 0.65; 1.0 MMOL) (STUDY DURATION: LIFETIME), Tumor Site: Type of Lesion: LIVER: HEPATOCELLULAR ADENOMA, LUNG: ALVEOLAR/BRONCHIAL ADENOMA, NASAL MUCOSA: CARCINOMA, ADENOMA, FORESTOMACH: SQUAMOUS, Tumor Site: Type of Lesion: LIVER: HEPATOCELLULAR ADENOMA, LUNG: ALVEOLAR/BRONCHIAL ADENOMA, NASAL MUCOSA: CARCINOMA, ADENOMA, FORESTOMACH: SQUAMOUS): active; positive | carcinogen call (Species: HAMSTER, Strain/Sex: SYRIAN/MALE, Route: GAVAGE, Dose: 0, 2.5, 5 MG/KG 1/WK FOR 23-30 WK (TOTAL DOSE: 0; 0.65; 1.0 MMOL) (STUDY DURATION: LIFETIME), Dose: 0, 2.5, 5 MG/KG 1/WK FOR 23-30 WK (TOTAL DOSE: 0; 0.65; 1.0 MMOL) (STUDY DURATION: LIFETIME), Tumor Site: Type of Lesion: LIVER: HEPATOCELLULAR ADENOMA, HEMANGIOSARCOMA, LUNG: ALVEOLAR/BRONCHIAL ADENOMA, NASAL MUCOSA: CARCINOMA, ADENOMA, FORE, Tumor Site: Type of Lesion: LIVER: HEPATOCELLULAR ADENOMA, HEMANGIOSARCOMA, LUNG: ALVEOLAR/BRONCHIAL ADENOMA, NASAL MUCOSA: CARCINOMA, ADENOMA, FORE): active; positive | carcinogen call (Species: RAT, Strain/Sex: F344/FEMALE, Route: INTRAVESICULAR, Dose: 0, 3 MG IN 0.2 ML ETHANOL: DEIONIZED WATER (1:3) 2/WK FOR 17 WK (TOTAL DOSE 0.9 MMOL) (STUDY DURATION: LIFESPAN), Tumor Site: Type of Lesion: ESOPHAGUS: TUMOR, LIVER: HEMANGIOSARCOMA): active; positive

O=C(O)Nc1ccc(-c2ccccc2)cc1
carcinogen call (Species: RAT, Strain/Sex: STRAIN-CD/FEMALE, Route: INTRAPERITONEAL, Dose: 0, 100 UMOL/KG BW 2/WK FOR 6 WK (STUDY DURATION: 62 WK)): inactive; negative

O=C1c2ccccc2-c2ccc([N+](=O)[O-])c3cccc1c23
carcinogen call (Species: RAT, Strain/Sex: F344/FEMALE, Route: INTRATRACHEAL, Dose: 0, 1.5 MG TOTAL, 2.5 MG TOTAL OVER 18 MO (STUDY DURATION: 18 MO), Dose: 0, 1.5 MG TOTAL, 2.5 MG TOTAL OVER 18 MO (STUDY DURATION: 18 MO), Tumor Site: Type of Lesion: LUNG: CARCINOMA): active; positive (at higher dosage and longer duration)

CCC(C)Br (configuration not stated)
carcinogen call (Species: MOUSE, Route: INTRAPERITONEAL, Tumor Site: Type of Lesion: LUNG): active; positive

O=P1(O)OP(=O)(O)OP(=O)(O)O1
carcinogen call (Species: RAT, Strain/Sex: F344/FEMALE, Route: ORAL, Dose: 0, 1.5, 3% IN DIET FOR DURATION OF STUDY (STUDY DURATION: 108 WK), Dose: 0, 1.5, 3% IN DIET FOR DURATION OF STUDY (STUDY DURATION: 108 WK)): inactive; negative | carcinogen call (Species: RAT, Strain/Sex: F344/MALE, Route: ORAL, Dose: 0, 1.5, 3% IN DIET FOR DURATION OF STUDY (STUDY DURATION: 108 WK), Dose: 0, 1.5, 3% IN DIET FOR DURATION OF STUDY (STUDY DURATION: 108 WK)): inactive; negative

CC(=O)O[C@]1(C(C)=O)CC[C@H]2[C@@H]3C=C(C)C4=CC(=O)CC[C@]4(C)[C@H]3CC[C@@]21C
carcinogen call (Species: DOG, Route: ORAL, Tumor Site: Type of Lesion: MAMMARY GLAND): active; positive

CN(C)CCOC(C)(c1ccccc1)c1ccccn1 (configuration not stated)
carcinogen call (Species: MOUSE, Strain/Sex: B6C3F1/FEMALE, Route: ORAL, Dose: 0, 190, 375, 750 PPM IN DIET FOR 2 YR (STUDY DURATION: 2 YR), Dose: 0, 190, 375, 750 PPM IN DIET FOR 2 YR (STUDY DURATION: 2 YR), Tumor Site: Type of Lesion: LIVER: HEPATOCELLULAR ADENOMA, THYROID: FOLLICULAR CELL ADENOMA): active; positive | carcinogen call (Species: MOUSE, Strain/Sex: B6C3F1/MALE, Route: ORAL, Dose: 0, 190, 375, 750 PPM IN DIET FOR 2 YR (STUDY DURATION: 2 YR), Dose: 0, 190, 375, 750 PPM IN DIET FOR 2 YR (STUDY DURATION: 2 YR), Tumor Site: Type of Lesion: LIVER: HEPATOCELLULAR ADENOMA, THYROID: FOLLICULAR CELL ADENOMA): active; positive | carcinogen call (Species: RAT, Strain/Sex: F344/FEMALE, Route: ORAL, Dose: 0, 500, 1000, 2000 PPM IN DIET FOR 2 YR (STUDY DURATION: 2 YR), Dose: 0, 500, 1000, 2000 PPM IN DIET FOR 2 YR (STUDY DURATION: 2 YR)): inactive; negative

Cc1c2ccccc2cc2c1ccc1ccccc12
carcinogen call (Species: MOUSE, Strain/Sex: ALBINO/FEMALE, Route: DERMAL, Dose: 70 UG IN 0.025 ML ACETONE 2/WK FOR 20 WK, Tumor Site: Type of Lesion: INTEGUMENTARY SYSTEM (SKIN): CARCINOMA): active; positive | carcinogen call (Species: MOUSE, Strain/Sex: ALBINO/FEMALE, Route: SUBCUTANEOUS, Dose: 0.1 ML OF 1 MG IN TRICAPRYLIN ONCE, Tumor Site: Type of Lesion: INJECTION SITE: SARCOMA): active; positive | carcinogen call (Species: MOUSE, Strain/Sex: ALBINO/FEMALE, Route: SUBCUTANEOUS, Dose: 0.25, 1.0 MG IN 0.1 ML TRICAPRYLIN ONCE, Tumor Site: Type of Lesion: INJECTION SITE: SARCOMA): active; positive | carcinogen call (Species: MOUSE, Strain/Sex: C57BL/MALE,FEMALE, Route: SUBCUTANEOUS, Dose: 1 MG IN 0.1 ML ARACHIS OIL 1/WK FOR 10 WK, Tumor Site: Type of Lesion: INJECTION SITE): active; positive | carcinogen call (Species: RAT, Strain/Sex: ALBINO/MALE, Route: SUBCUTANEOUS, Dose: 2.0 MG IN 0.25 ML TRICAPRYLIN ONCE, Tumor Site: Type of Lesion: INJECTION SITE: SARCOMA): active; positive | carcinogen call (Species: RAT, Strain/Sex: F344/MALE,FEMALE, Route: SUBCUTANEOUS, Dose: 2 MG IN 0.2 ML PARAFFIN SOLN (TOTAL DOSE 4 MG/RAT), Tumor Site: Type of Lesion: INJECTION SITE: FIBROSARCOMA): active; positive | carcinogen call (Species: RAT, Strain/Sex: HOLTZMAN/MALE, Route: SUBCUTANEOUS, Dose: 0.25 ML OF 2 MG IN TRICAPRYLIN ONCE, Tumor Site: Type of Lesion: INJECTION SITE: SARCOMA): active; positive | carcinogen call (Species: RAT, Strain/Sex: LONG-EVANS/MALE, Route: INTRAMUSCULAR, Dose: 2.5 MG IN 0.5 ML SESAME OIL ONCE, Tumor Site: Type of Lesion: INJECTION SITE: SARCOMA): active; positive

O=[As](O)(O)O
carcinogen call (Species: MOUSE, Strain/Sex: SWISS/FEMALE, Route: INTRAVENOUS, Dose: 0, 0.5 MG/KG/WK FOR 20 WK (STUDY DURATION: 96 WK)): inactive; negative | carcinogen call (Species: MOUSE, Strain/Sex: SWISS/MALE, Route: INTRAVENOUS, Dose: 0, 0.5 MG/KG/WK FOR 20 WK (STUDY DURATION: 96 WK)): inactive; negative

OCC(O)CCl (configuration not stated)
carcinogen call (Species: Rat, Strain/Sex: Sprague-Dawley/Female, Route: Oral, Dose: 0, 25, 100, 400 ppm in drinking water for 2 yr (Study duration: 104 wk), Dose: 0, 25, 100, 400 ppm in drinking water for 2 yr (Study duration: 104 wk), Tumor Site: Type of Lesion: Kidney: Renal tubule adenoma or carcinoma): active; positive | carcinogen call (Species: Rat, Strain/Sex: Sprague-Dawley/Male, Route: Oral, Dose: 0, 25, 100, 400 ppm in drinking water for 2 yr (Study duration: 100 wk), Dose: 0, 25, 100, 400 ppm in drinking water for 2 yr (Study duration: 100 wk), Tumor Site: Type of Lesion: Kidney: Renal tubule adenoma or carcinoma, Testes: Leydig cell tumor): active; positive

CCNNCC
carcinogen call (Species: RAT, Route: PRE-NATAL EXP, Tumor Site: Type of Lesion: BRAIN, NERVOUS SYSTEM): active; positive

CN(C)CCN(Cc1ccsc1)c1ccccn1
carcinogen call (Species: RAT, Strain/Sex: SPRAGUE-DAWLEY/FEMALE, Route: ORAL, Dose: 0, 500, 1000 PPM IN DRINKING WATER 5D/WK FOR LIFE (STUDY DURATION: 572-731 D), Dose: 0, 500, 1000 PPM IN DRINKING WATER 5D/WK FOR LIFE (STUDY DURATION: 572-731 D)): inactive; negative | carcinogen call (Species: RAT, Strain/Sex: SPRAGUE-DAWLEY/MALE, Route: ORAL, Dose: 0, 500, 1000 PPM IN DRINKING WATER 5D/WK FOR LIFE (STUDY DURATION: 515-576 D), Dose: 0, 500, 1000 PPM IN DRINKING WATER 5D/WK FOR LIFE (STUDY DURATION: 515-576 D)): inactive; negative
